Measurements reported in ChEMBL document CHEMBL3112479, “Synthesis and evaluation of the antimicrobial activities of 3-((5-phenyl-1,3,4-oxadiazol-2-yl)methyl)-2-thioxothiazolidin-4-one derivatives” (2014).
Converted amounts (≈) assume the structure as drawn.

Experiments:
[1] = system: Candida albicans; assay: Antimicrobial activity against Candida albicans 7535 after 20 hrs by two-fold serial dilution technique; format: functional; conditions: Candida albicans, 7535, 20 h
[2] = system: Staphylococcus aureus; assay: Antimicrobial activity against methicillin-resistant Staphylococcus aureus clinical isolate 3506 after 20 hrs by two-fold serial dilution technique; format: functional; conditions: isolate 3506, 20 h
[3] = system: Salmonella typhimurium; assay: Antimicrobial activity against Salmonella typhimurium 2421 after 20 hrs by two-fold serial dilution technique; format: functional, Salmonella enterica subsp. enterica serovar Typhimurium; conditions: Salmonella enterica, 2421, 20 h
[4] = system: Staphylococcus aureus; assay: Antimicrobial activity against methicillin-resistant Staphylococcus aureus clinical isolate 3167 after 20 hrs by two-fold serial dilution technique; format: functional; conditions: isolate 3167, 20 h
[5] = system: Staphylococcus aureus; assay: Antimicrobial activity against Staphylococcus aureus RN4220 after 20 hrs by two-fold serial dilution technique; format: functional; conditions: RN4220, 20 h
[6] = system: Salmonella typhimurium; assay: Antimicrobial activity against Salmonella typhimurium 1926 after 20 hrs by two-fold serial dilution technique; format: functional, Salmonella enterica subsp. enterica serovar Typhimurium; conditions: Salmonella enterica, 1926, 20 h
[7] = system: Pseudomonas aeruginosa; assay: Antimicrobial activity against Pseudomonas aeruginosa 2742 after 20 hrs by two-fold serial dilution technique; format: functional; conditions: Pseudomonas aeruginosa, 2742, 20 h
[8] = system: Escherichia coli; assay: Antimicrobial activity against Escherichia coli KCTC 1924 after 20 hrs by two-fold serial dilution technique; format: functional; conditions: KCTC 1924, 20 h
[9] = system: Staphylococcus aureus; assay: Antimicrobial activity against quinolone-resistant Staphylococcus aureus clinical isolate 3505 after 20 hrs by two-fold serial dilution technique; format: functional; conditions: isolate 3505, 20 h
[10] = system: Pseudomonas aeruginosa; assay: Antimicrobial activity against Pseudomonas aeruginosa 2004 after 20 hrs by two-fold serial dilution technique; format: functional; conditions: Pseudomonas aeruginosa, 2004, 20 h
[11] = system: Staphylococcus aureus; assay: Antimicrobial activity against Staphylococcus aureus 209 after 20 hrs by two-fold serial dilution technique; format: functional; conditions: Staphylococcus aureus, 209, 20 h
[12] = system: Staphylococcus aureus; assay: Antimicrobial activity against Staphylococcus aureus 503 after 20 hrs by two-fold serial dilution technique; format: functional; conditions: Staphylococcus aureus, 503, 20 h
[13] = system: Streptococcus mutans; assay: Antimicrobial activity against Streptococcus mutans 3065 after 20 hrs by two-fold serial dilution technique; format: functional; conditions: Streptococcus mutans, 3065, 20 h
[14] = system: Escherichia coli; assay: Antimicrobial activity against Escherichia coli CCARM 1356 after 20 hrs by two-fold serial dilution technique; format: functional; conditions: CCARM 1356, 20 h
[15] = system: Staphylococcus aureus; assay: Antimicrobial activity against quinolone-resistant Staphylococcus aureus clinical isolate 3519 after 20 hrs by two-fold serial dilution technique; format: functional; conditions: isolate 3519, 20 h

SMILES | MIC [1] [µg/mL] | MIC [2] [µg/mL] | MIC [3] [µg/mL] | MIC [4] [µg/mL] | MIC [5] [µg/mL] | MIC [6] [µg/mL] | MIC [7] [µg/mL] | MIC [8] [µg/mL] | MIC [9] [µg/mL] | MIC [10] [µg/mL] | MIC [11] [µg/mL] | MIC [12] [µg/mL] | MIC [13] [µg/mL] | MIC [14] [µg/mL] | MIC [15] [µg/mL]
O=C1CSC(=S)N1[C@@H](Cc1ccccc1)c1nnc(-c2ccccc2)o1 | > 64 | 16 (≈ 41.9 µM) | > 128 | 16 (≈ 41.9 µM) | 16 (≈ 41.9 µM) | > 128 | > 128 | > 128 | 16 (≈ 41.9 µM) | > 128 | > 64 | > 64 | 8 (≈ 21 µM) | > 128 | 16 (≈ 41.9 µM)
Cc1cccc(-c2nnc([C@H](Cc3ccccc3)N3C(=O)/C(=C/c4ccc(C(=O)O)cc4)SC3=S)o2)c1 | > 64 | 4 (≈ 7.58 µM) | > 128 | 2 (≈ 3.79 µM) | 2 (≈ 3.79 µM) | > 128 | > 128 | > 128 | 2 (≈ 3.79 µM) | > 128 | > 64 | > 64 | 4 (≈ 7.58 µM) | > 128 | 4 (≈ 7.58 µM)
O=C(O)c1ccc(/C=C2\SC(=S)N([C@@H](Cc3ccccc3)c3nnc(-c4cccc(Cl)c4)o3)C2=O)cc1 | > 64 | 4 (≈ 7.3 µM) | > 128 | 2 (≈ 3.65 µM) | 2 (≈ 3.65 µM) | > 128 | > 128 | > 128 | 2 (≈ 3.65 µM) | > 128 | > 64 | > 64 | 2 (≈ 3.65 µM) | > 128 | 4 (≈ 7.3 µM)
O=C(O)c1ccc(/C=C2\SC(=S)N([C@@H](Cc3ccccc3)c3nnc(-c4cccc(Br)c4)o3)C2=O)cc1 | > 64 | 1 (≈ 1.69 µM) | > 128 | 1 (≈ 1.69 µM) | 2 (≈ 3.38 µM) | > 128 | > 128 | > 128 | 2 (≈ 3.38 µM) | > 128 | > 64 | > 64 | 1 (≈ 1.69 µM) | > 128 | 2 (≈ 3.38 µM)
O=C1CSC(=S)N1Cc1nnc(-c2cccc(Br)c2)o1 | 32 (≈ 86.4 µM) | 32 (≈ 86.4 µM) | 128 (≈ 346 µM) | 16 (≈ 43.2 µM) | 32 (≈ 86.4 µM) | 32 (≈ 86.4 µM) | > 128 | 16 (≈ 43.2 µM) | 32 (≈ 86.4 µM) | > 128 | 16 (≈ 43.2 µM) | 32 (≈ 86.4 µM) | 16 (≈ 43.2 µM) | > 128 | 32 (≈ 86.4 µM)
Cc1ccc(-c2nnc(CN3C(=O)CSC3=S)o2)cc1 | 64 (≈ 210 µM) | 64 (≈ 210 µM) | 128 (≈ 419 µM) | 64 (≈ 210 µM) | 64 (≈ 210 µM) | 64 (≈ 210 µM) | > 128 | 64 (≈ 210 µM) | 64 (≈ 210 µM) | > 128 | 64 (≈ 210 µM) | 64 (≈ 210 µM) | 64 (≈ 210 µM) | > 128 | 64 (≈ 210 µM)
O=C1CSC(=S)N1Cc1nnc(-c2ccc(Cl)cc2)o1 | 32 (≈ 98.2 µM) | 32 (≈ 98.2 µM) | 128 (≈ 393 µM) | 32 (≈ 98.2 µM) | 32 (≈ 98.2 µM) | 32 (≈ 98.2 µM) | > 128 | 16 (≈ 49.1 µM) | 64 (≈ 196 µM) | > 128 | 32 (≈ 98.2 µM) | 64 (≈ 196 µM) | 16 (≈ 49.1 µM) | > 128 | 64 (≈ 196 µM)
O=C1CSC(=S)N1Cc1nnc(-c2ccc(Br)cc2)o1 | 64 (≈ 173 µM) | 64 (≈ 173 µM) | 128 (≈ 346 µM) | 64 (≈ 173 µM) | 64 (≈ 173 µM) | 64 (≈ 173 µM) | > 128 | 64 (≈ 173 µM) | 64 (≈ 173 µM) | > 128 | 64 (≈ 173 µM) | 64 (≈ 173 µM) | 16 (≈ 43.2 µM) | > 128 | 64 (≈ 173 µM)
Cc1ccccc1-c1nnc(CN2C(=O)CSC2=S)o1 | 64 (≈ 210 µM) | 64 (≈ 210 µM) | 128 (≈ 419 µM) | 32 (≈ 105 µM) | 32 (≈ 105 µM) | 32 (≈ 105 µM) | > 128 | 16 (≈ 52.4 µM) | 32 (≈ 105 µM) | > 128 | 16 (≈ 52.4 µM) | 64 (≈ 210 µM) | 16 (≈ 52.4 µM) | > 128 | 64 (≈ 210 µM)
O=C1CSC(=S)N1Cc1nnc(-c2ccccc2Cl)o1 | 64 (≈ 196 µM) | 32 (≈ 98.2 µM) | 64 (≈ 196 µM) | 32 (≈ 98.2 µM) | 32 (≈ 98.2 µM) | 32 (≈ 98.2 µM) | > 128 | 16 (≈ 49.1 µM) | 32 (≈ 98.2 µM) | > 128 | 16 (≈ 49.1 µM) | 32 (≈ 98.2 µM) | 16 (≈ 49.1 µM) | > 128 | 32 (≈ 98.2 µM)
O=C1CSC(=S)N1Cc1nnc(-c2ccccc2Br)o1 | 64 (≈ 173 µM) | 32 (≈ 86.4 µM) | 128 (≈ 346 µM) | 16 (≈ 43.2 µM) | 32 (≈ 86.4 µM) | 64 (≈ 173 µM) | > 128 | 16 (≈ 43.2 µM) | 32 (≈ 86.4 µM) | > 128 | 16 (≈ 43.2 µM) | 64 (≈ 173 µM) | 16 (≈ 43.2 µM) | > 128 | 32 (≈ 86.4 µM)
